Measurements taken from article PMC10817531, “Chlorinated Enyne Fatty Acid Amides from a Marine Cyanobacterium: Discovery of Taveuniamides L-M and Pharmacological Characterization of Taveuniamide F as a GPCR Antagonist with CNR1 Selectivity” (Marine Drugs, 2023).
Several values for one entry are separate records, joined by “and”; a condition that tells them apart may be missing. Equal values may be shown once.

Experiments:
[1] = target: T1, human recombinant cannabinoid CNR1 receptors (Homo sapiens, UniProt P21554); experiment: Competitive radioligand binding assay ([3H]SR141716A); details: 2 nM [3H]SR141716A, 60 min, 37 °C, Chem-1 cell membranes
T1 construct: host or cells: rat hematopoietic Chem-1 cells (membrane homogenate)
Description: (a) Competitive radioligand binding assay of 4 to CNR1. Membrane homogenate of rat hematopoietic Chem-1 cells expressing human recombinant CNR1 receptors is incubated with 2 nM [3H]SR141716A for 60 min at 37 °C. […] (b) Effect of 4 in CNR1 cAMP functional assay in agonist and antagonist mode. Experiments were carried out as technical duplicates. Data are presented as mean ± SD (n = 2).
The assay was carried out by Eurofins Panlabs Discovery Services (New Taipei City, Taiwan). Human recombinant cannabinoid CNR1 receptors expressed in rat hematopoietic Chem-1 cells were used in modified HEPES buffer (50 mM HEPES, pH 7.4, 5 mM MgCl2, 1 mM CaCl2, 0.2% BSA). A 5 µg aliquot of membrane homogenate was incubated with 2 nM [^3H]SR141716A for 60 min at 37 °C. […] Membranes were filtered and washed four times and the filters were counted to determine [^3H]SR141716A as specifically bound. Compound 4 was screened at 8 concentrations, where the highest concentration was 50 µM. […] The experiments were carried out as technical duplicates.

HTR2A = target: T2, HTR2A (Homo sapiens, UniProt P28223); experiment: PathHunter β-arrestin GpcrMAX assay; format: cell-based
T2 construct: host or cells: U2OS
Description: (§1) GpcrMAX panel biosensor assays were used to characterize taveuniamide F (4, 20 µM) (agonist and antagonist mode). The experiments were carried out by DiscoveRx Corporation (Fremont, CA, USA) as described before, using PathHunter β-arrestin enzyme fragment complementation (EFC) technology.
(§2) Dose–response curves were obtained by subjecting taveuniamide F (4) to a secondary antagonist screen utilizing ten GPCR biosensor assays (Arrestin) against the following targets: GPR119, NPSR1b, HTR2C, CCR9, CHRM4, GPR120, HTR2A, GPR103, CNR1, and CNR2. Stably transfected HEK293 cells expressing GPR119, U2OS cells expressing NPSR1b, HTR2C and HTR2A, and CHO-K1 cells expressing the rest of the mentioned receptors, were incubated with 4 for 30 min. The assays were performed at 10-point concentrations using 3-fold serial dilutions in duplicate, where the highest concentration was 50 µM.

GPR103 = target: T3, GPR103 (Homo sapiens, UniProt Q96P65); experiment: PathHunter β-arrestin GpcrMAX assay; format: cell-based
T3 construct: host or cells: CHO-K1
T3 sequence (Q96P65 1-431): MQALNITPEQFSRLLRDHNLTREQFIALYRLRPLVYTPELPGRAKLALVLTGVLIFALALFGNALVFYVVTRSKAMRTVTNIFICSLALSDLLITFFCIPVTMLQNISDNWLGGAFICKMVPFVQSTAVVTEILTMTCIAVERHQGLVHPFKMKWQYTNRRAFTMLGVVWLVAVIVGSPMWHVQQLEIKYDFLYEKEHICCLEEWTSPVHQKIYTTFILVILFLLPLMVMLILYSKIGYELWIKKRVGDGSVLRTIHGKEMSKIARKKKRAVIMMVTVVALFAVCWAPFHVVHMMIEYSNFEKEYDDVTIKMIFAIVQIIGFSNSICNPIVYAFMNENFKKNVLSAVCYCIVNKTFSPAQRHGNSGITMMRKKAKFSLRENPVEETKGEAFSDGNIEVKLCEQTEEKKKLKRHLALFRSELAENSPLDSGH
Description: as §1, §2

GPR120 = target: T4, GPR120 (Homo sapiens, UniProt Q5NUL3); experiment: PathHunter β-arrestin GpcrMAX assay; format: cell-based
T4 construct: host or cells: CHO-K1
T4 sequence (Q5NUL3 1-361): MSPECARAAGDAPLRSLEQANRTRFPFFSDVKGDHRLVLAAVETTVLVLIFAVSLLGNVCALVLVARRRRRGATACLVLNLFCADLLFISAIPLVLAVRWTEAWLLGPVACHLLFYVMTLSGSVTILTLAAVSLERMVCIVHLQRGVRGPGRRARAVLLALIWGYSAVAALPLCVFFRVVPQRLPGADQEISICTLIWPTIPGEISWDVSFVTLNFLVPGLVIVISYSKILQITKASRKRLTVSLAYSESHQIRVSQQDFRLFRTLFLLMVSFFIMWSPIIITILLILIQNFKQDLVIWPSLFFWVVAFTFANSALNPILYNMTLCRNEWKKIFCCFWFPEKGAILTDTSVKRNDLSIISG
Description: as §1, §2

[2] = antagonist mode (% inhibition), 20 µM
[3] = antagonist dose–response, 10-point, CHO-K1 cells, 30 min

T2 sequence (P28223 whole entry): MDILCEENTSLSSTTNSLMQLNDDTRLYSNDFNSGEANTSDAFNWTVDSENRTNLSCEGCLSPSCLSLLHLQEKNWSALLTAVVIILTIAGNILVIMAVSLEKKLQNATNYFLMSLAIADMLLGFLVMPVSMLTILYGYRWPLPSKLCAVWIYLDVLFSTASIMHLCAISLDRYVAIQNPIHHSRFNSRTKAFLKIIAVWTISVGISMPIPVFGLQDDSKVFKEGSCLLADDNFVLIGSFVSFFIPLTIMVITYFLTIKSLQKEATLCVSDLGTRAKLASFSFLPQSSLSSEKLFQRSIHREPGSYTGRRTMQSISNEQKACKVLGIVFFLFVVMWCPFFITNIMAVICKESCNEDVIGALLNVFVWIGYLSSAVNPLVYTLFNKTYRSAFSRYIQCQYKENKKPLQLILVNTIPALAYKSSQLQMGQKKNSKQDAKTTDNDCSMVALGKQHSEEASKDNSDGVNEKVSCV
T1 sequence (P21554 whole entry): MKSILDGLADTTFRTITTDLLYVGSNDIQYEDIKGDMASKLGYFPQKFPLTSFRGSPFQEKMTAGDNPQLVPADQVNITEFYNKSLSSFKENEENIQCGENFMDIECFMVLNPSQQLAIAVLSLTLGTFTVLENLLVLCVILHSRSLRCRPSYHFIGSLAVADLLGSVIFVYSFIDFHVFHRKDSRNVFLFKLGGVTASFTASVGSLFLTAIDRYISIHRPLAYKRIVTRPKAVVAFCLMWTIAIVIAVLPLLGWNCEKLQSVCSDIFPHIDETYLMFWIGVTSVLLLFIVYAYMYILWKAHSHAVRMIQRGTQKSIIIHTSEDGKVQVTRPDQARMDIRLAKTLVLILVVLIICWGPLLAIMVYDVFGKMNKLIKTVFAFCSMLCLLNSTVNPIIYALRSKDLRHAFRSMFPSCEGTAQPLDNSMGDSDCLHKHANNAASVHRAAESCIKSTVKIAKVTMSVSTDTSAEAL

CC(=O)N[C@@H](CCCC#C/C=C/Cl)CCCCCCC(Cl)Cl [Compound 4, taveuniamide F]
IC50 [1]: 37.7 µM | Ki [1]: 34 µM | IC50 (HTR2A; antagonist dose–response, 10-point, U2OS cells, 30 min): 4.8 µM and 4.83 µM | inhibition (HTR2A; [2]): ≥ 80% | inhibition at 20 µM (HTR2A; [2]): 84.9% | IC50 (GPR103; [3]): 14 µM and 14.1 µM | inhibition (GPR103; [2]): ≥ 80% | inhibition at 20 µM (GPR103; [2]): 79.8% | IC50 (GPR120; [3]): 4.7 µM and 4.72 µM | inhibition (GPR120; [2]): ≥ 80% | inhibition at 20 µM (GPR120; [2]): 96.9%
